Laboratory results from patent publication US8981047B2 (Indiana University Research and Technology Corporation, priority 2007, dated 2015).
One block for each molecule: values may come before it. Square brackets hold non-standard residues; d marks the D form. Peptide text beside a SMILES is read from it. Abu(4-SO3H) = N[C@@H](CCS(=O)(=O)O)C(=O)O; PhLac = O=C(O)[C@@H](O)Cc1ccccc1

Experiments:
GLP-1 receptor = GLP-1 receptor (Homo sapiens, UniProt P43220); test: cAMP induction, firefly luciferase reporter assay in HEK293 cells; type: cell-based; details: Table 13; cells expressing the human GLP-1 receptor
glucagon receptor [1] = biological target: T1, glucagon receptor (Homo sapiens, UniProt P47871); test: cAMP inhibition (antagonism of glucagon-induced cAMP production); type: cell-based; parameters: expressed in transfected cells; host or cells: HEK293; details: Tables 5-12 and FIGS. 4, 5, 7, 8
glucagon receptor [2] = biological target: T1, glucagon receptor; test: cAMP induction, firefly luciferase reporter assay in HEK293 cells; type: cell-based; parameters: expressed in transfected cells; host or cells: HEK293; details: read-out: cAMP Induction Glucagon Receptor EC50; Table 2
glucagon receptor [3] = biological target: T1, glucagon receptor; test: Glucagon receptor binding assay (scintillation proximity competition with 125I-glucagon); details: 6-29 shortened glucagon amide backbone

T1 sequence (P47871 26-477): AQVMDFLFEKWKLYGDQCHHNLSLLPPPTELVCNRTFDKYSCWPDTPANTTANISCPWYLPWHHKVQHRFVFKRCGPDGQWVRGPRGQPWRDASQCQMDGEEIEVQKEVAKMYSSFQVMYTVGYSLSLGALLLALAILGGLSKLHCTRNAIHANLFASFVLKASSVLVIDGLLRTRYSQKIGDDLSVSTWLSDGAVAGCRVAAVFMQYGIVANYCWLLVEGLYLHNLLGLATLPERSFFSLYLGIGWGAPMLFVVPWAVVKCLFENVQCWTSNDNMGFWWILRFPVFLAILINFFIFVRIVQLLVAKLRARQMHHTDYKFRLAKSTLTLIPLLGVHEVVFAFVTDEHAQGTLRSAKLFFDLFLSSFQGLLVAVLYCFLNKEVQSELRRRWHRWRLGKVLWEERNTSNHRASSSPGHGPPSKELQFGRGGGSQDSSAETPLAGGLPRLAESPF
GLP-1 receptor, sequence (P43220 24-463): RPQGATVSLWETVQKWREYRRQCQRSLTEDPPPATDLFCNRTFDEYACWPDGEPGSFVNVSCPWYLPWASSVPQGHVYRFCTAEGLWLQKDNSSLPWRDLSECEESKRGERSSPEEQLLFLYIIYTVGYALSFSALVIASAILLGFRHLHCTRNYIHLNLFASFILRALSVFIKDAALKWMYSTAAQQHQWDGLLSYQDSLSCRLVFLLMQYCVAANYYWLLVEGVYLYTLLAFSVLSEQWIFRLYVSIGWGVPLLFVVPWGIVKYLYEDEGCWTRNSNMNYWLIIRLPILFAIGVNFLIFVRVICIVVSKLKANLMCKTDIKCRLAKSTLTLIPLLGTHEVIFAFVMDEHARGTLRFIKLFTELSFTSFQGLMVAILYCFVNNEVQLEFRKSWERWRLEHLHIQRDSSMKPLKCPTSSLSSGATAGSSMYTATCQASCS

Molecule: CSCC[C@H](NC(=O)[C@H](CC(C)C)NC(=O)[C@H](Cc1c[nH]c2ccccc12)NC(=O)[C@H](CCC(N)=O)NC(=O)[C@@H](NC(=O)[C@H](Cc1ccccc1)NC(=O)[C@H](CC(=O)O)NC(=O)[C@H](CCC(N)=O)NC(=O)[C@H](C)NC(=O)[C@H](CCCNC(=N)N)NC(=O)[C@H](CCCNC(=N)N)NC(=O)[C@H](CO)NC(=O)[C@H](CC(=O)O)NC(=O)[C@H](CC(C)C)NC(=O)[C@H](Cc1ccc(O)cc1)NC(=O)[C@H](CCCCN)NC(=O)[C@H](CO)NC(=O)[C@H](Cc1ccc(O)cc1)NC(=O)[C@H](CCC(=O)O)NC(=O)[C@H](CO)NC(=O)[C@@H](NC(=O)[C@@H](O)Cc1ccccc1)[C@@H](C)O)C(C)C)C(=O)N[C@@H](CC(N)=O)C(=O)N[C@H](C(N)=O)[C@@H](C)O [[PLA6, E9]Glucagon(aa6-29)-NH2] (H-[PhLac]TSEYSKYLDSRRAQDFVQWLMNT-NH2)
- GLP-1 agonism EC50 (GLP-1 receptor): No agonism

Molecule: Oxyntomodulin C24 PEG 20 K
- EC50 (glucagon receptor [2]): 0.97 ± 0.04 nM

Molecule: PLA6 analog: native glucagon with first 5 residues deleted and N-terminal amino group of Phe replaced with hydroxyl (phenyl-lactic acid); SEQ ID NO: 39
- increase of affinity for the glucagon receptor relative to the native Phe6 analog (glucagon receptor [3]): threefold

Now from value to molecule, other results behind:

- glucagon antagonism in the cAMP bioassay, result in words (glucagon receptor [1]): some level of antagonism
Molecule: CC(C)C[C@H](NC(=O)[C@H](Cc1ccc(O)cc1)NC(=O)[C@H](CCCCN)NC(=O)[C@H](CO)NC(=O)[C@H](Cc1ccc(O)cc1)NC(=O)[C@H](CCS(=O)(=O)O)NC(=O)[C@H](CO)NC(=O)[C@@H](NC(=O)[C@H](Cc1ccccc1)NC(=O)[C@@H](NC(=O)[C@H](CC(C)C)NC(=O)[C@H](CCC(N)=O)NC(=O)[C@@H](N)CO)[C@@H](C)O)[C@@H](C)O)C(=O)N[C@@H](CC(=O)O)C(=O)N[C@@H](CO)C(=O)N[C@@H](CCCNC(=N)N)C(=O)N[C@@H](CCCNC(=N)N)C(=O)N[C@@H](C)C(=O)N[C@@H](CCC(N)=O)C(=O)N[C@@H](CC(=O)O)C(=O)N[C@@H](Cc1ccccc1)C(=O)N[C@H](C(=O)N[C@@H](CCC(N)=O)C(=O)N[C@@H](Cc1ccccc1)C(=O)N[C@@H](CC(C)C)C(=O)N[C@@H](CC(C)C)C(=O)N[C@@H](CC(N)=O)C(=O)N[C@H](C(N)=O)[C@@H](C)O)C(C)C [[desHis^1, Leu^4, hCys^9(SO3-), Phe^25, Leu^27] Glucagon-NH2] (H-SQLTFTS[Abu(4-SO3H)]YSKYLDSRRAQDFVQFLLNT-NH2; N-terminus assumed)

- glucagon antagonism in the cAMP bioassay, result in words (glucagon receptor [1]): some level of antagonism
Molecule: CC(C)C[C@H](NC(=O)[C@H](Cc1ccc(O)cc1)NC(=O)[C@H](CCCCN)NC(=O)[C@H](CO)NC(=O)[C@H](Cc1ccc(O)cc1)NC(=O)[C@H](CCS(=O)(=O)O)NC(=O)[C@H](CO)NC(=O)[C@@H](NC(=O)[C@@H](NC(=O)CNC(=O)[C@H](CCC(N)=O)NC(=O)[C@@H](N)CO)[C@@H](C)O)[C@@H](C)O)C(=O)N[C@@H](CC(=O)O)C(=O)N[C@@H](CO)C(=O)N[C@@H](CCCNC(=N)N)C(=O)N[C@@H](CCCNC(=N)N)C(=O)N[C@@H](C)C(=O)N[C@@H](CCC(N)=O)C(=O)N[C@@H](CC(=O)O)C(=O)N[C@@H](Cc1ccccc1)C(=O)N[C@H](C(=O)N[C@@H](CCC(N)=O)C(=O)N[C@@H](Cc1ccccc1)C(=O)N[C@@H](CC(C)C)C(=O)N[C@@H](CC(C)C)C(=O)N[C@@H](CC(N)=O)C(=O)N[C@H](C(N)=O)[C@@H](C)O)C(C)C [[desHis^1, desPhe^6, hCys^9(SO3-), Phe^25, Leu^27] Glucagon-NH2] (H-SQGTTS[Abu(4-SO3H)]YSKYLDSRRAQDFVQFLLNT-NH2; N-terminus assumed)

- glucagon antagonism in the cAMP bioassay, result in words (glucagon receptor [1]): full antagonists
Molecule: CSCC[C@H](NC(=O)[C@H](CC(C)C)NC(=O)[C@H](Cc1c[nH]c2ccccc12)NC(=O)[C@H](CCC(N)=O)NC(=O)[C@@H](NC(=O)[C@H](Cc1ccccc1)NC(=O)[C@H](CC(=O)O)NC(=O)[C@H](CCC(N)=O)NC(=O)[C@H](C)NC(=O)[C@H](CCCNC(=N)N)NC(=O)[C@H](CCCNC(=N)N)NC(=O)[C@H](CO)NC(=O)[C@H](CC(=O)O)NC(=O)[C@H](CC(C)C)NC(=O)[C@H](Cc1ccc(O)cc1)NC(=O)[C@H](CCCCN)NC(=O)[C@H](CO)NC(=O)[C@H](Cc1ccc(O)cc1)NC(=O)[C@H](CCS(=O)(=O)O)NC(=O)[C@H](CO)NC(=O)[C@@H](NC(=O)[C@H](Cc1ccccc1)NC(=O)[C@@H](NC(=O)CN)[C@@H](C)O)[C@@H](C)O)C(C)C)C(=O)N[C@@H](CC(N)=O)C(=O)N[C@H](C(N)=O)[C@@H](C)O [[hCys^9(SO3H)]Glucagon(aa4-29)-NH2, [hCys(SO3H)9]glucagon (4-29) amide] (H-GTFTS[Abu(4-SO3H)]YSKYLDSRRAQDFVQWLMNT-NH2; N-terminus assumed)

- glucagon antagonism in the cAMP bioassay, result in words (glucagon receptor [1]; listed as 5-29 hCys(SO3H)^9): full antagonists
Molecule: CSCC[C@H](NC(=O)[C@H](CC(C)C)NC(=O)[C@H](Cc1c[nH]c2ccccc12)NC(=O)[C@H](CCC(N)=O)NC(=O)[C@@H](NC(=O)[C@H](Cc1ccccc1)NC(=O)[C@H](CC(=O)O)NC(=O)[C@H](CCC(N)=O)NC(=O)[C@H](C)NC(=O)[C@H](CCCNC(=N)N)NC(=O)[C@H](CCCNC(=N)N)NC(=O)[C@H](CO)NC(=O)[C@H](CC(=O)O)NC(=O)[C@H](CC(C)C)NC(=O)[C@H](Cc1ccc(O)cc1)NC(=O)[C@H](CCCCN)NC(=O)[C@H](CO)NC(=O)[C@H](Cc1ccc(O)cc1)NC(=O)[C@H](CCS(=O)(=O)O)NC(=O)[C@H](CO)NC(=O)[C@@H](NC(=O)[C@H](Cc1ccccc1)NC(=O)[C@@H](N)[C@@H](C)O)[C@@H](C)O)C(C)C)C(=O)N[C@@H](CC(N)=O)C(=O)N[C@H](C(N)=O)[C@@H](C)O [[hCys^9(SO3H)]Glucagon(aa5-29)-NH2, [hCys(SO3H)9]glucagon (5-29) amide] (H-TFTS[Abu(4-SO3H)]YSKYLDSRRAQDFVQWLMNT-NH2; N-terminus assumed)
- glucagon antagonism in the cAMP bioassay, result in words (glucagon receptor [1]; listed as 5-29 hCys9): pure potent antagonism, without any measurable agonist activity
- glucagon antagonism in the cAMP bioassay, result in words (glucagon receptor [1]; listed as 5-29 hCys9-based glucagon antagonist): more potent and effective than the literature standards

- glucagon antagonism in the cAMP bioassay, result in words (glucagon receptor [1]; listed as 6-29 hCys(SO3H)^9): full antagonists
Molecule: CSCC[C@H](NC(=O)[C@H](CC(C)C)NC(=O)[C@H](Cc1c[nH]c2ccccc12)NC(=O)[C@H](CCC(N)=O)NC(=O)[C@@H](NC(=O)[C@H](Cc1ccccc1)NC(=O)[C@H](CC(=O)O)NC(=O)[C@H](CCC(N)=O)NC(=O)[C@H](C)NC(=O)[C@H](CCCNC(=N)N)NC(=O)[C@H](CCCNC(=N)N)NC(=O)[C@H](CO)NC(=O)[C@H](CC(=O)O)NC(=O)[C@H](CC(C)C)NC(=O)[C@H](Cc1ccc(O)cc1)NC(=O)[C@H](CCCCN)NC(=O)[C@H](CO)NC(=O)[C@H](Cc1ccc(O)cc1)NC(=O)[C@H](CCS(=O)(=O)O)NC(=O)[C@H](CO)NC(=O)[C@@H](NC(=O)[C@@H](N)Cc1ccccc1)[C@@H](C)O)C(C)C)C(=O)N[C@@H](CC(N)=O)C(=O)N[C@H](C(N)=O)[C@@H](C)O [[hCys^9(SO3H)]Glucagon(aa6-29)-NH2] (H-FTS[Abu(4-SO3H)]YSKYLDSRRAQDFVQWLMNT-NH2)
- glucagon antagonism in the cAMP bioassay, result in words (glucagon receptor [1]; listed as 6-29 hCys9): pure potent antagonism, without any measurable agonist activity
